Test results taken from patent US20240325382A1, “COMPOSITIONS AND METHODS FOR TREATING ANEMIA ASSOCIATED WITH A RIBOSOMAL DISORDER” (Disc Medicine, Inc., priority 2021, published 2024).
“Also recorded” adds a separate entry of the source.

Tests used:
Type in all cases: cell-based
[1] = system: TF-1 cells expressing scrambled shRNA; test: Cell number after bitopertin treatment, scrambled shRNA TF-1 cells; conditions: 4 nM or 37 nM bitopertin, 2 days (day 4 to day 6), doxycycline and GMCSF
Method: (§1) Prior to treatment with bitopertin, the TF-1/shRNA #a cells were treated with doxycycline for 4 days to induce RPS19 knockdown by shRNA #a. TF-1/scramble shRNA cells were treated similarly as an experimental control. On day 4, both TF-1/shRNA #a and TF-1/scramble shRNA cells were seeded to the 12-well cell culture plates at a density of 1×10^5 cells per well. Bitopertin was added to the cells in 12-well plates for 48 hours of treatment from day 4 to day 6. […] Each of the TF-1 cells were also treated with doxycycline and GMCSF, which induces shRNA expression and stimulates proliferation, for the entirety of the experiment.
(§2) We investigated if blocking the uptake of heme biosynthesis pathway precursor glycine into cells with bitopertin could restore the balance between heme and globin and reverse the anti-proliferative effects caused by RPS19 knockdown. To test this hypothesis, similarly as above, washed cells were seeded in 6-well plates with doxycycline and GMSCSF to induce shRNA expression and cell proliferation for four days. On day 4, 1×10^5 cells were seeded into a 12-well plate with 4 nM or 37 nM bitopertin. After two days of treatment with bitopertin, we enumerated cell numbers.

[2] = system: TF-1 shRNA #a cells; test: Cell number after bitopertin treatment, RPS19 knockdown TF-1 cells; conditions: 4 nM or 37 nM bitopertin, 2 days (day 4 to day 6), doxycycline and GMCSF
Method: as §1, §2

[3] = system: TF-1/shRNA #b cells; test: CTG cell viability after bitopertin treatment, RPS19 knockdown TF-1 cells; conditions: varying doses, 1 μM top concentration, 9 points 3-fold dilutions, 2 days, doxycycline and GMCSF
Method: The cells were treated with (1) doxycycline during the entire cell culture period to induce shRNA expression; (2) GMCSF during the entire 6 days of cell culture period to induce proliferation. At day 4 of cell culture, the TF-1 cells were seeded to the 96-well cell culture plates at a density of 1×10^4 cells per well, and were treated with varying doses of bitopertin for two days of the culture period, from day 4 to day 6.
Further, in a similar setup, an equal number of cells were seeded on to 96-well plates after four days of doxycycline treatment and incubated with varying doses of bitopertin (1 μM top concentration, 9 points 3-fold dilutions) for two days and on day 6, we performed a CTG assay to measure the cell viability. The cells were cultured in the presence of GMCSF during the entire cell culture period.

[4] = system: TF-1 cells; test: Cell growth of TF-1 stable lines by cell counting with trypan blue staining; conditions: 6 days of culture with doxycycline; for growth inhibition (cell count): EPO; for effect on cell proliferation (cell count) compared to scrambled shRNA: GMCSF (2 ng/ml)
Source text: RPS19 knockdown in TF-1 cells has been previously reported to adversely affect the growth of erythroid cells due to an imbalance in heme and globin synthesis. See, e.g., Yang, Z. et al. Sci Transl Med 8, 338ra67 (2016). The TF-1 cell line is a cell line of immature erythroid origin that requires cytokines such as granulocyte-macrophage colony-stimulating factor (GMCSF) or erythropoietin (EPO) for its growth. The cell growth capability of TF-1 stable lines shRNA #a, shRNA #b, and scrambled shRNA were assessed in vitro by cell counting after 6-days of cell culture in the presence of doxycycline induction. Cells were washed from regular growth media and seeded in equal numbers into media containing either GMCSF (2 ng/ml), a growth factor that induces proliferation of the TF-1 cells, or EPO (Ing/ml), a hormone that induces growth of the TF-1 cells and induces their differentiation along the erythroid lineage. Cell growth was monitored by counting cells with trypan blue staining (FIG. 3A and FIG. 3B).

[5] = system: TF-1 cells; test: Cell viability of TF-1 stable lines by CellTiter-Glo (CTG); conditions: GMCSF and EPO stimulus, doxycycline, 96-well plates
Method: Similarly, the cell growth capability of TF-1 stable lines shRNA #a, shRNA #b, and scrambled shRNA was assessed in vitro by cell viability assay. As described above, washed cells were seeded into 96 well plates in equal numbers in media containing either GMCSF or EPO (FIG. 4A and FIG. 4B) on separate plates for each day of readout. Cell viability was measured using the CellTiter-Glo® (CTG), which determines the number of viable cells in culture by quantifying ATP, which indicates the presence of metabolically active cells.

[6] = system: RPS19 protein; test: RPS19 protein levels by western blot in TF-1 stable cell lines; conditions: TF-1 stable line, doxycycline-induced shRNA, by day 5
Method: To generate an RPS19 deficient Diamond blackfan anemia (DBA) model, a TF-1 erythroid cell line was transduced with lentivirus encoding shRNAs targeting RPS19 (referred to as “shRNA #a” and “shRNA #b”) and a scrambled shRNA control (referred to as “Scramble shRNA” or “Scrambled”) (See Table 1). Stable cell lines were generated by selecting the infected cells with puromycin (1 ug/ml) for three weeks. The shRNA expression is doxycycline inducible. In the stable cell lines, RPS19 mRNA expression was measured using qRT-PCR after two (FIG. 1A) and four (FIG. 1B) days of doxycycline treatment. […] Further, RPS19 protein levels were decreased by more than 70% by shRNA #b by day 5 (FIG. 2A and FIG. 2B). The antibodies used in determining the RPS19 protein levels are described in Table 1.

C[C@H](Oc1ccc(S(C)(=O)=O)cc1C(=O)N1CCN(c2ncc(C(F)(F)F)cc2F)CC1)C(F)(F)F [bitopertin]
effect on cell number of scrambled shRNA cells [1]: did not affect
effect on cell number of RPS19 knockdown cells [2]: reverses the anti-proliferative effects; also recorded: protective effect
effect on cell viability (CTG) compared to TF-1/scrambled shRNA cells [3]: dose-dependent bitopertin protective effect

shRNA #a: lentivirus-encoded, doxycycline-inducible shRNA targeting RPS19, GAGATCTGGACAGAATCGC (SEQ ID NO: 1)
growth inhibition (cell count) [4]: dose-dependent growth inhibition
effect on cell proliferation (cell count) compared to scrambled shRNA [4]: moderate effect
cell growth inhibition (CTG cell viability) compared to scrambled shRNA [5]: moderate cell growth inhibitory effects

shRNA #b: lentivirus-encoded, doxycycline-inducible shRNA targeting RPS19, GCTTGCTCCCTACGATGAGAA (SEQ ID NO: 2)
decrease of RPS19 protein levels [6]: more than 70%
growth inhibition (cell count) [4]: dose-dependent growth inhibition
effect on cell proliferation (cell count) compared to scrambled shRNA [4]: more substantial effect
cell growth inhibition (CTG cell viability) compared to scrambled shRNA [5]: high degree inhibition in cell growth
